Laboratory results taken from patent US20220033363A1, “HERBICIDALLY ACTIVE SUBSTITUTED PHENYLPYRIMIDINE HYDRAZIDES” (Bayer Aktiengesellschaft, priority 2018, published 2022).

Columns and labels:
Assay type in all cases: in vivo
Lolium rigidum [1] = assay: Herbicidal post-emergence action (Method A) against LOLRI; settings: rated visually after about 3 weeks vs untreated controls; for pest or weed control at 1280 g/ha: Lolium rigidum, post-emergence, 504 h
Protocol: (§1) Method A: Herbicidal Post-Emergence Action Seeds of mono- and dicotyledonous weed plants are placed in plastic pots in sandy loam soil (twin sowing with one species each of mono- or dicotyledonous weed plants per pot), covered with soil and cultivated in a greenhouse under controlled growth conditions. 2 to 3 weeks after sowing, the test plants are treated at the one-leaf stage. The compounds of the invention, formulated in the form of wettable powders (WP) or as emulsion concentrates (EC), are applied to the green parts of the plants as aqueous suspension or emulsion with addition of 0.5% additive at a water application rate equivalent to 600 liters per hectare. After the test plants have been kept in the greenhouse under optimum growth conditions for about 3 weeks, the activity of the preparations is rated visually in comparison to untreated controls. For example, 100% activity=the plants have died, 0% activity=like control plants.

Poa annua [2] = assay: Herbicidal post-emergence action (Method A) against POAAN; settings: 504 h, rated visually after about 3 weeks vs untreated controls; for pest or weed control at 320 g/ha: read-out: Post-emergence action at 320 g/ha against POANN; for pest or weed control at 1280 g/ha: read-out: Post-emergence action at 1280 g/ha against POANN
Protocol: as §1

Amaranthus retroflexus = assay: Herbicidal post-emergence action (Method A) against AMARE; settings: rated visually after about 3 weeks vs untreated controls
Protocol: as §1

Matricaria inodora [3] = assay: Herbicidal post-emergence action (Method A) against MATIN; settings: rated visually after about 3 weeks vs untreated controls
Protocol: as §1

Stellaria media [4] = assay: Herbicidal post-emergence action (Method A) against STEME; settings: 504 h, rated visually after about 3 weeks vs untreated controls
Protocol: as §1

Echinochloa crus-galli [5] = assay: Herbicidal pre-emergence action (Method B) against ECHCG; settings: 504 h, scored visually after about 3 weeks vs untreated controls
Excerpt: (§2) Method B: Herbicidal Pre-Emergence Action Seeds of mono- and dicotyledonous weed plants are placed in plastic pots in sandy loam soil (doubly sown with one species each of mono- or dicotyledonous weed plants per pot) and covered with soil. The compounds of the invention, formulated in the form of wettable powders (WP) or as emulsion concentrates (EC), are then applied onto the surface of the covering soil as aqueous suspension or emulsion with addition of 0.5% additive at a water application rate equivalent to 600 liters per hectare. After the treatment, the pots are placed in a greenhouse and kept under good growth conditions for the trial plants. After about 3 weeks, the effect of the preparations is scored visually in comparison with untreated controls as percentages. For example, 100% action=the plants have died, 0% action=like control plants.

Lolium rigidum [6] = assay: Herbicidal pre-emergence action (Method B) against LOLRI; settings: 504 h, scored visually after about 3 weeks vs untreated controls
Excerpt: as §2

Poa annua [7] = assay: Herbicidal pre-emergence action (Method B) against POAAN; settings: 504 h, scored visually after about 3 weeks vs untreated controls
Excerpt: as §2

Matricaria inodora [8] = assay: Herbicidal pre-emergence action (Method B) against MATIN; settings: Tripleurospermum inodorum, 504 h, scored visually after about 3 weeks vs untreated controls
Excerpt: as §2

Stellaria media [9] = assay: Herbicidal pre-emergence action (Method B) against STEME; settings: 504 h; for pest or weed control at 320 g/ha: dosage 320 g/ha; for pest or weed control at 1280 g/ha: dosage 1280 g/ha
Excerpt: as §2

harmful plants = assay: Herbicidal post-emergence action (Method A), summary statement; settings: summary of tables A1-A11
Protocol: as §1

Echinochloa crus-galli [10] = assay: Herbicidal post-emergence action (Method A) against ECHCG; settings: rated visually after about 3 weeks vs untreated controls; for pest or weed control at 1280 g/ha: Echinochloa crus-galli, post-emergence, 504 h
Protocol: as §1

Setaria viridis = assay: Herbicidal pre-emergence action (Method B) against SETVI; settings: 1280 g/ha, scored visually after about 3 weeks vs untreated controls
Excerpt: as §2

Abutilon theophrast = assay: Herbicidal pre-emergence action (Method B) against ABUTH; settings: 1280 g/ha, scored visually after about 3 weeks vs untreated controls
Excerpt: as §2

Row | SMILES | pest or weed control at 1280 g/ha (Lolium rigidum [1]) [%] | pest or weed control at 320 g/ha (Poa annua [2]) [%] | pest or weed control at 1280 g/ha (Poa annua [2]) [%] | Post-emergence action at 1280 g/ha against AMARE (Amaranthus retroflexus) [%] | Post-emergence action at 1280 g/ha against MATIN (Matricaria inodora [3]) [%] | pest or weed control at 320 g/ha (Stellaria media [4]) [%] | pest or weed control at 1280 g/ha (Stellaria media [4]) [%] | pest or weed control at 320 g/ha (Echinochloa crus-galli [5]) [%] | pest or weed control at 1280 g/ha (Echinochloa crus-galli [5]) [%] | pest or weed control at 320 g/ha (Lolium rigidum [6]) [%] | pest or weed control at 1280 g/ha (Lolium rigidum [6]) [%] | pest or weed control at 320 g/ha (Poa annua [7]) [%] | pest or weed control at 1280 g/ha (Poa annua [7]) [%] | pest or weed control at 1280 g/ha (Matricaria inodora [8]) [%] | pest or weed control at 320 g/ha (Stellaria media [9]) [%] | pest or weed control at 1280 g/ha (Stellaria media [9]) [%] | Post-emergence action at 320 g/ha against ECHCG (Echinochloa crus-galli [10]) [%] | pest or weed control at 1280 g/ha (Echinochloa crus-galli [10]) [%] | Post-emergence action at 320 g/ha against LOLRI (Lolium rigidum [1]) [%] | pest or weed control at 320 g/ha (Matricaria inodora [8]) [%] | other results
1 | CN(N)C(=O)c1nc(C2CC2)ncc1-c1ccccc1Cl [Example I-500, 5-(2-chlorophenyl)-2-cyclopropyl-N-methylpyrimidine-4-carbohydrazide] | 90 | 100 | 100 | 100 | 90 | 100 | 100 | 90 | 100 | 90 | 100 | 100 | 100 | 100 | 100 | 100 | – | – | – | – | Post-emergence action at 320 g/ha against MATIN (Matricaria inodora [3]; 320 g/ha): 90%; herbicidal efficacy against harmful plants in the case of post-emergence treatment (harmful plants): good herbicidal efficacy
2 | CN(C)NC(=O)c1nc(C2CC2)ncc1-c1ccccc1Cl [Example I-501, 5-(2-chlorophenyl)-2-cyclopropyl-N′,N′-dimethylpyrimidine-4-carbohydrazide] | 100 | 100 | 100 | 100 | 90 | 100 | 100 | 100 | 100 | 100 | 100 | 100 | 100 | 100 | 100 | 100 | 100 | 100 | 100 | 100 | –
3 | O=C(NNc1ccccn1)c1nc(C2CC2)ncc1-c1ccccc1Cl [Example I-510, 5-(2-chlorophenyl)-2-cyclopropyl-N′-(pyridin-2-yl)pyrimidine-4-carbohydrazide] | 90 | 100 | 100 | 100 | 90 | 100 | 100 | 100 | 100 | 100 | 100 | 100 | 100 | 100 | 100 | 100 | 90 | 90 | 90 | 100 | Pre-emergence action against SETVI (Setaria viridis): 90%
4 | CC(=O)N(NC(=O)c1nc(C2CC2)ncc1-c1ccccc1Cl)c1ccccn1 [Example I-513, N′-acetyl-5-(2-chlorophenyl)-2-cyclopropyl-N′-(pyridin-2-yl)pyrimidine-4-carbohydrazide] | 100 | 100 | 100 | – | 90 | 100 | 100 | – | 100 | – | 90 | 100 | 100 | 100 | 100 | 100 | 100 | 100 | – | – | –
5 | CN(NC(=O)c1nc(C2CC2)ncc1-c1ccccc1Cl)C(=O)OC(C)(C)C [Example I-548, tert-butyl 2-{[5-(2-chlorophenyl)-2-cyclopropylpyrimidin-4-yl]carbonyl}-1-methylhydrazinecarboxylate] | – | – | 90 | – | – | – | – | 90 | 100 | – | 90 | 100 | 100 | – | 100 | 100 | – | 90 | – | – | –
6 | CCNC(=O)NNC(=O)c1nc(C2CC2)ncc1-c1ccccc1Cl [Example I-552, 2-{[5-(2-chlorophenyl)-2-cyclopropylpyrimidin-4-yl]carbonyl}-N-ethylhydrazinecarboxamide] | 90 | 100 | 100 | – | 90 | – | 100 | – | 90 | 90 | 90 | 100 | 100 | 100 | 100 | 100 | 90 | 100 | 90 | 90 | Pre-emergence action against ABUTH (Abutilon theophrast): 90%
7 | O=C(NN=C1CCOCC1)c1nc(C2CC2)ncc1-c1ccccc1Cl [Example I-559, 5-(2-chlorophenyl)-2-cyclopropyl-N′-(tetrahydro-4H-pyran-4-ylidene)pyrimidine-4-carbohydrazide] | 100 | 100 | 100 | – | – | 90 | 100 | 90 | 100 | 100 | 100 | 100 | 100 | 100 | 100 | 100 | 90 | 90 | 90 | 100 | herbicidal efficacy against harmful plants in the case of post-emergence treatment (harmful plants): good herbicidal efficacy
8 | CCOC(=O)NNC(=O)c1nc(C2CC2)ncc1-c1ccc(F)cc1Cl [Example I-2591, ethyl 2-{[5-(2-chloro-4-fluorophenyl)-2-cyclopropylpyrimidin-4-yl]carbonyl}hydrazinecarboxylate] | – | 100 | 100 | – | – | – | 100 | – | 100 | – | 100 | 100 | 100 | 90 | 100 | 100 | – | 90 | – | – | –
